Where a name gives a salt, the structure may show the parent alone.
Experiments:
[1] = test system: 22Rv1 cells; assay: Cell viability assay (CellTiterGlo); details: Homo sapiens, 22Rv1, 144 h, read-out: 22RV1 (IC50, nM)
Procedure: Cell viability assay: LNCap, 22Rv1, MCF7, MDAMB361, T47D, and IEC6 cells were seeded at a density of 500-2000 cells/well in 96 well plates, and a ‘T0’ (timepoint 0) was included along with the assay plate. The plates were then incubated at 37° C., 5% CO2 in a cell culture incubator overnight. On the next day, the ‘T0’ plate was assayed using CellTiterGlo (Promega, Inc) according to the manufacturer's instructions. The appropriate compounds were diluted in DMSO and added to the assay plate (final DMSO concentration of 0.1-0.2%) on the next day. The assay plates were incubated for 6 days at 37° C., 5% CO2. After the incubation period, the plates were assayed using CellTiterGlo (Promega, Inc) according to the manufacturer's instructions and luminescence was read on the En Vision plate reader. […] GraphPadPrism was used to analyze the data and determine GI50/IC50 values.

[2] = target: T1, GR (cytosol from IM-9 cells) (Homo sapiens, UniProt P04150); assay: GR binding assay (3H-Dexamethasone displacement)
T1 sequence (P04150 1-777): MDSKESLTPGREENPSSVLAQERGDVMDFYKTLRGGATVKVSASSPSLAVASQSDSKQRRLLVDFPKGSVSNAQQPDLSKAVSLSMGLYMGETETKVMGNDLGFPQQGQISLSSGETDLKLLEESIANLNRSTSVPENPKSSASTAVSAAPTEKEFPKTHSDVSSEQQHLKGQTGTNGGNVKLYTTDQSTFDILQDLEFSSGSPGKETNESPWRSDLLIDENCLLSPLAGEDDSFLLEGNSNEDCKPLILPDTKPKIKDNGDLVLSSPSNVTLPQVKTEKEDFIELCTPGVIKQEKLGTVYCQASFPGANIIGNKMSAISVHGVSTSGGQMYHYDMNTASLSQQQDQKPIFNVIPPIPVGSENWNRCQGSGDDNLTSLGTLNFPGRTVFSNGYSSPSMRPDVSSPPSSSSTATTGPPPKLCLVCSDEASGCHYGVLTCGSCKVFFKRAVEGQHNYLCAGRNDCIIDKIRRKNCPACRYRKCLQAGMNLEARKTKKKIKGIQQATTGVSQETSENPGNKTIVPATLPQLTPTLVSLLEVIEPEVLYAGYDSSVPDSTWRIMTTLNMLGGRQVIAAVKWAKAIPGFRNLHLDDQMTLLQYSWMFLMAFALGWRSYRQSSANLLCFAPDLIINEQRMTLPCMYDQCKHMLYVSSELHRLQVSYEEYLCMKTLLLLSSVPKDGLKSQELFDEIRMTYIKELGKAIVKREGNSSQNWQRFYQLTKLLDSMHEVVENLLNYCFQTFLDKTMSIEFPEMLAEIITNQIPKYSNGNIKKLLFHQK

[3] = target: T2, Progesterone PR-B receptors from human breast carcinoma T47D cells (Homo sapiens, UniProt P06401); assay: PR binding assay ([3H] Progesterone displacement)
T2 sequence (P06401 1-933): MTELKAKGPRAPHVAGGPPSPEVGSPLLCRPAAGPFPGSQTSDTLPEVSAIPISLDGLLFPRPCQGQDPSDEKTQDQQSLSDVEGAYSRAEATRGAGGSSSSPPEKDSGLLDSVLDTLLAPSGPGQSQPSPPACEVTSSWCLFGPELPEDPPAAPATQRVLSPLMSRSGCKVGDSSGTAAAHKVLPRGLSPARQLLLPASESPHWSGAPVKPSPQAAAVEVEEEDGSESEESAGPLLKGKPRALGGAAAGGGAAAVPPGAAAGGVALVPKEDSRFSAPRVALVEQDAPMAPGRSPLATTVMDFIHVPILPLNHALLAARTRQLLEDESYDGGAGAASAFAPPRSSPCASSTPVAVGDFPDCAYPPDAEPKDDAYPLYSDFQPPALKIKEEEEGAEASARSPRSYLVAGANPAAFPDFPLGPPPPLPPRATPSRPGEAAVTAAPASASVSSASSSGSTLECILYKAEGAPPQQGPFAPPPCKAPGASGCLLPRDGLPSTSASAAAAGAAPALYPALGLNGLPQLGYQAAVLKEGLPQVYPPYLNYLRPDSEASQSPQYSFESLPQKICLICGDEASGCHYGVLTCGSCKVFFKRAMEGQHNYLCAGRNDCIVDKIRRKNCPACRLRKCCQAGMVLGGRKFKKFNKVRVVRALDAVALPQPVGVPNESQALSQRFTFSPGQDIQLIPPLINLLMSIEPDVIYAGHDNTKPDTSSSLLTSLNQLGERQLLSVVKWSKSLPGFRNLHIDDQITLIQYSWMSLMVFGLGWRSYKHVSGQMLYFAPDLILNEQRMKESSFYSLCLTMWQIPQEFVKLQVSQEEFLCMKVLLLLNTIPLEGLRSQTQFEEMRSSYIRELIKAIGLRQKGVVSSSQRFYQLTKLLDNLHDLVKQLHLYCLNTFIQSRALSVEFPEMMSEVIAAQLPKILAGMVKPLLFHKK

[4] = test system: T47D cells; assay: Cell viability assay (CellTiterGlo); type: cell-based; details: Homo sapiens, 144 h, 6 days incubation, CellTiterGlo, read-out: T47D (IC50)
[5] = target: T3, Progesterone Receptor (PR)-LBD and coactivator peptide (Homo sapiens, UniProt P06401); assay: PR coactivator antagonist assay; details: 2.5 nM PR-LBD, 10 nM progesterone-induced fluorescence response
T3 sequence (P06401 679-913 limits assumed): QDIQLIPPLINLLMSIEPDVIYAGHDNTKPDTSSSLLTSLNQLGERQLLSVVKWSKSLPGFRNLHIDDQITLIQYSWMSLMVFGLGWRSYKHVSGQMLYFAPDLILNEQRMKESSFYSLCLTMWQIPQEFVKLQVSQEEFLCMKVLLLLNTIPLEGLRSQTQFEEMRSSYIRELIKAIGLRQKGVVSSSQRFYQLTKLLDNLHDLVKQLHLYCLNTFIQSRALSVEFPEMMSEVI

Row | Structure (SMILES) | IC50 [1] | IC50 [2] | IC50 [3] | IC50 [4] | PR antagonism [5]
1 | CC[C@@]1(O)C(=O)OCc2c1cc1n(c2=O)Cc2cc3c(CN4CCN(C(=O)C5CCN(c6ccc(C(=O)N[C@H]7CC[C@H](Oc8ccc(C#N)c(Cl)c8C)CC7)nn6)CC5)CC4)c(OC(=O)N4C[C@H](C)N(C)C[C@H]4C)ccc3nc2-1 [Compound 30, (S)-10-((4-(1-(6-(((1r,4r)-4-(3-Chloro-4-cyano-2-methylphenoxy)cyclohexyl)carbamoyl)-pyridazin-3-yl)piperidine-4-carbonyl)piperazin-1-yl)methyl)-4-ethyl-4-hydroxy-3,14-dioxo-3,4,12,14-tetrahydro-1H-pyrano[3′,4′:6,7]indolizino[1,2-b]quinolin-9-yl (2R,5S)-2,4,5-trimethylpiperazine-1-carboxylate Formate] | 101 to 1000 nM | > 1000 nM | < 10 nM |  | 
2 | CC[C@@]1(O)C(=O)OCc2c1cc1n(c2=O)Cc2cc3c(CN(C)C)c(OC(=O)N4CCN(CC5CCN(c6ccc(C(=O)N[C@H]7CC[C@H](Oc8ccc(C#N)c(Cl)c8C)CC7)nn6)CC5)CC4)ccc3nc2-1 [Compound 31, (S)-10-((Dimethylamino)methyl)-4-ethyl-4-hydroxy-3,14-dioxo-3,4,12,14-tetrahydro-1H-pyrano[3′,4′:6,7]indolizino[1,2-b]quinolin-9-yl 4-((1-(6-(((1r,4r)-4-(3-chloro-4-cyano-2-methylphenoxy)cyclohexyl)carbamoyl)pyridazin-3-yl)piperidin-4-yl)methyl)piperazine-1-carboxylate Formate] | 101 to 1000 nM | > 1000 nM | < 10 nM |  | 
3 | CC[C@@]1(O)C(=O)OCc2c1cc1n(c2=O)Cc2cc3c(CN4CCN(CCCCCCN(C)c5ccc([C@H]6C[C@@]7(C)[C@@H](CC[C@]7(OC(C)=O)C(C)=O)[C@@H]7CCC8=CC(=O)CCC8=C76)cc5)CC4)c(O)ccc3nc2-1 [Compound 36, (8S,11R,13S,14S,17R)-17-acetyl-11-(4-((6-(4-(((S)-4-ethyl-4,9-dihydroxy-3,14-dioxo-3,4,12,14-tetrahydro-1H-pyrano[3′,4′:6,7]indolizino[1,2-b]quinolin-10-yl)methyl)piperazin-1-yl)hexyl)(methyl)amino)phenyl)-13-methyl-3-oxo-2,3,6,7,8,11,12,13,14,15,16,17-dodecahydro-1H-cyclopenta[a]phenanthren-17-yl acetate] |  | 101 to 1000 nM | < 10 nM | 10 to 100 nM | 
4 | CC[C@@]1(O)C(=O)OCc2c1cc1n(c2=O)Cc2c-1nc1cc(F)c(C)c3c1c2[C@@H](N(C)C(=O)COCC1CCN(CCCCCCCN(C)c2ccc([C@H]4C[C@@]5(C)[C@@H](CC[C@]5(OC(C)=O)C(C)=O)[C@@H]5CCC6=CC(=O)CCC6=C54)cc2)CC1)CC3 [Compound 55, (8S,11R,13S,14S,17R)-17-acetyl-11-(4-((7-(4-((2-(((1S,9S)-9-ethyl-5-fluoro-9-hydroxy-4-methyl-10,13-dioxo-2,3,9,10,13,15-hexahydro-1H,12H-benzo[de]pyrano[3′,4′:6,7]indolizino[1,2-b]quinolin-1-yl)(methyl)amino)-2-oxoethoxy)methyl)piperidin-1-yl)heptyl)(methyl)amino)phenyl)-13-methyl-3-oxo-2,3,6,7,8,11,12,13,14,15,16,17-dodecahydro-1H-cyclopenta[a]phenanthren-17-yl acetate] |  | < 10 nM | < 10 nM | 101 to 1000 nM | 
5 | CC[C@@]1(O)C(=O)OCc2c1cc1n(c2=O)Cc2cc3c(CN(C)C)c(OCC4CCN(C(=O)CN(C)c5ccc([C@H]6C[C@@]7(C)[C@@H](CC[C@]7(OC(C)=O)C(C)=O)[C@@H]7CCC8=CC(=O)CCC8=C76)cc5)CC4)ccc3nc2-1 [Compound No. 19, (8S,11R,13S,14S,17R)-17-Acetyl-11-(4-((2-(4-((((S)-10-((dimethylamino)methyl)-4-ethyl-4-hydroxy-3,14-dioxo-3,4,12,14-tetrahydro-1H-pyrano[3′,4′:6,7]indolizino[1,2-b]quinolin-9-yl)oxy)methyl)-piperidin-1-yl)-2-oxoethyl)(methyl)amino)phenyl)-13-methyl-3-oxo-2,3,6,7,8,11,12,13,14,15,16,17-dodeca-hydro-1H-cyclopenta[a]phenanthren-17-yl acetate] |  | < 10 nM | < 10 nM | 101 to 1000 nM | a (IC50 =< 10 nM)
6 | CC[C@@]1(O)C(=O)OCc2c1cc1n(c2=O)Cc2c-1nc1cc(F)c(C)c3c1c2[C@@H](NC(=O)COCCCCCCN(C)c1ccc([C@H]2C[C@@]4(C)[C@@H](CC[C@]4(OC(C)=O)C(C)=O)[C@@H]4CCC5=CC(=O)CCC5=C42)cc1)CC3 [Compound No. 47, (8S,11R,13S,14S,17R)-17-acetyl-11-(4-((6-(2-(((1S,9S)-9-ethyl-5-fluoro-9-hydroxy-4-methyl-10,13-dioxo-2,3,9,10,13,15-hexahydro-1H,12H-benzo[de]pyrano [3′,4′:6,7]indolizino[1,2-b]quinolin-1-yl)amino)-2-oxoethoxy)hexyl)(methyl)amino)phenyl)-13-methyl-3-oxo-2,3,6,7,8,11,12,13,14,15,16,17-dodecahydro-1H-cyclopenta[a]phenanthren-17-yl acetate] |  | < 10 nM | < 10 nM | 10 to 100 nM | 
7 | CC[C@@]1(O)C(=O)OCc2c1cc1n(c2=O)Cc2c-1nc1cc(F)c(C)c3c1c2[C@@H](NCC1CCN(CC2CCN(C(=O)CN(C)c4ccc([C@H]5C[C@@]6(C)[C@@H](CC[C@]6(OC(C)=O)C(C)=O)[C@@H]6CCC7=CC(=O)CCC7=C65)cc4)CC2)CC1)CC3 [Compound No. 51, (8S,11R,13S,14S,17R)-17-acetyl-11-(4-((2-(4-((4-((((1S,9S)-9-ethyl-5-fluoro-9-hydroxy-4-methyl-10,13-dioxo-2,3,9,10,13,15-hexahydro-1H,12H-benzo[de]pyrano[3′,4′:6,7]indolizino[1,2-b]quinolin-1-yl)amino)methyl)piperidin-1-yl)methyl)piperidin-1-yl)-2-oxoethyl)(methyl)amino)phenyl)-13-methyl-3-oxo-2,3,6,7,8,11,12,13,14,15,16,17-dodecahydro-1H-cyclopenta[a]phenanthren-17-yl acetate] | 10 to 100 nM | 10 to 100 nM | < 10 nM |  | 

From patent US20260102501A1, “ANTI-CANCER NUCLEAR HORMONE RECEPTOR-TARGETING COMPOUNDS” (Nuvation Bio Inc., priority 2022, published 2026)
